This is an account of results in patent US9260481B2, “Peptide derivatives as antibiotics” (priority 2011, dated 2016).

By CC50 is commonly meant the concentration giving 50% cytotoxicity. Lower therefore signals harm at low concentration. What is called viability is a read-out of living cells in per cent, often relative to untreated cells. A word on the MBC: it is the smallest concentration meeting the test's criterion for killing. Low values mean greater bactericidal potency, high ones weaker bactericidal potency.

In brackets after ≈: the same amount, converted by molar mass. Like-named read-outs stand apart in the source and are kept apart here. Marks after values point to notes of the source that are not given here. Numbered stars: 1 amine (or outer) side, 2 acyl side, 3 side chain; on linkers, the order of the positions; unused ones are H or OH. Square brackets hold non-standard residues; d marks the D form. Peptide text beside a SMILES is read from it. * marks the point of attachment. ξ: configuration not given here. X1 = NCC(O)CCC(N[*:1])C(=O)[*:2]; ΔZArg = N=C(N)NCC/C=C(\N)C(=O)O; ξDab(3-OH) = NCC(O)C(N)C(=O)O; Orn = NCCC[CH](N)C(=O)O; NH(CH2)4NH2 = NCCCCN*

One series can be described thus: Cytotoxicity test (MTS). It is filed as cell-based. The following applies: human; for CC50 at 72 h: MTS; for viability at 72 h: dose of up to 100 μg/mL, read-out: cell viability. How it is done: The cytotoxicity of the Odilomycins A-C was investigated against Human colon adenocarcinoma (HT29) cells and Human normal lung fibroblasts (MRC-5) cells. 200 μL of the cell suspension of HT29 (human colorectal adenocarcinoma) prepared in RPMI 1640+1% L-Glutamine supplemented with 10% (v/v) fetal calf serum and 200 μL of the cell suspension of MRC5 (human lung fibroblast) prepared in Dulbecco's modified Eagle's medium supplemented with 25 mM glucose and 10% (v/v) fetal calf serum were inoculated into 96-well plates.
The inoculating cell number was 800 cells per well for HT29 and 2100 cells per well for MRC-5. The microplates were incubated at 37° C. for 24 h with 5% of CO2.
Twenty four hours later, Odilomycin A, B or C dissolved in water were added for 72 h at a final concentration from 0.78 μg/mL to 100 μg/mL in a fixed volume of water (1% final concentration). […] Experiments were done in triplicate.

The subject of the next series is P. aeruginosa ATCC 27853. It is filed as cell-based, Pseudomonas aeruginosa. The following applies: ATCC 27853, 24 h. The procedure:
(§1) Minimal bactericidal concentrations (MBCs) were established by extending the MIC procedure to the evaluation of bactericidal activity. After 24 hours, 10 μL were drawn from the wells, serially diluted and then spotted onto suitable agar plates. The plates were incubated at 37° C. overnight. […] All the experiments were done in triplicate.

For the next series, the system named is S. aureus ATCC 13709. The series is classed as cell-based, Staphylococcus aureus. The following applies: ATCC 13709, 24 h. The procedure:
as §1

The next series deals with Pseudomonas aeruginosa. How it is done:
(§2) The minimal inhibitory concentrations (MIC) were determined according to the Clinical and Laboratory Standards Institute (CLSI) conditions guidelines detailed in Table 7. Assays were performed in triplicate.
(§3) Preparation of Inocula. Five to 10 well-isolated colonies were picked and resuspended in 3 ml sterile saline. The inoculum was re-suspended by vigorous shaking on a vortex mixer for 15 s. Turbidity was adjusted to McFarland standard 0.5 ([…]). The inoculum was further diluted in the appropriate media (Table 7) to give a final inoculum in each well of ˜2-8×10^5 CFU/ml.
(§4) Addition of Test Article. Stock solutions of Odilomycin A or comparator were diluted in the appropriate media to give a maximum starting concentration of 50 μg/mL in the assay. 50 μL of medium was dispensed into each well in columns two to 12 of a 96 well plate. 100 μL of the appropriate test compound solution (100 μg/mL) was dispensed into each well in column one. In the case of M. catarrhalis, M. haemolytica and P. multocida these values were doubled (a final assay volume of 200 μL was used). […] Columns 11 and 12 served as positive (no drug or test article, inoculum added), and negative (no drug, test article, or inoculum added) growth controls respectively.
(§5) Addition of Bacterial Strains. 50 μL of each inoculum suspension was added to the appropriate wells, resulting in a final volume of 100 μL consisting of 50 μL diluted compound or diluents, and 50 μL of inoculum or broth alone.

A further series relates to Bacteroides fragilis. As to the kind of experiment: microbe, parasite or virus in culture. The following applies: Bacteroides fragilis, ATCC25238. How it is done:
as §2, §3, §4, §5

In a further series the test system is Escherichia coli. The procedure: as §2, §3, §4, §5
A further series has as its system Klebsiella pneumoniae. How it is done:
as §2, §3, §4, §5

The test system of a further series is Enterobacter cloacae. The following applies: E. cloacae clinical isolate 11370. The procedure:
as §2, §3, §4, §5

The test system of a further series is Klebsiella oxytoca. The following applies: K. oxytoca clinical isolate NEB9. How it is done: as §2, §3, §4, §5
The mark [1] stands for this setting: HT29 colon adenocarcinoma cells.
Setting [2] is: MRC-5 normal lung fibroblasts, MRC-5 cells.

Consider `N=C(N)NCC/C=C(\NC(=O)C(CCCCN)NC(=O)C(Cc1cnc[nH]1)NC(=O)C1CCCN1C(=O)C(CCCN)NC(=O)CNC(=O)C(NC(=O)C(NC(=O)C(N)CCCCN)C(O)CN)C(O)CN)C(=O)NC(CCC(O)CN)C(=O)NCCCCN` (stereo not drawn) [Odilomycin B, Lys-(3-hydroxy-2,4-diaminobutanoic acid)-(3-hydroxy-2,4-diaminobutanoic acid)-Gly-Ornithine-Pro-His-Lys-(2,3-dehydroarginine)-(5-hydroxylysine)-(1,4-diaminobutane)] (H-K[ξDab(3-OH)][ξDab(3-OH)]G[Orn]PHK[ΔZArg][X1]-{NH(CH2)4NH2}; configuration not given here), for which the CC50 at 72 h in “Cytotoxicity test (MTS)” (setting [1]) and in “Cytotoxicity test (MTS)” (setting [2]) was greater than 100 µg/mL each time. Moreover, the viability at 72 h in “Cytotoxicity test (MTS)” (setting [1]) and in the series “Cytotoxicity test (MTS)” (setting [2]) was 100% throughout. The minimum bactericidal concentration (MBC) in the series with P. aeruginosa ATCC 27853 amounted to 3.12 µg/mL (≈ 2.44 µM); with S. aureus ATCC 13709, 0.78 µg/mL (≈ 0.609 µM).
`N=C(N)NCC/C=C(\NC(=O)C(CCCCN)NC(=O)C(Cc1cnc[nH]1)NC(=O)C1CCCN1C(=O)C(CCCN)NC(=O)CNC(=O)C(NC(=O)C(NC(=O)C(N)CCCCN)C(O)CN)C(O)CN)C(=O)NC(CCCCN)C(=O)NCCCCN` (stereo not drawn) [Odilomycin C, Lys-(3-hydroxy-2,4-diaminobutanoic acid)-(3-hydroxy-2,4-diaminobutanoic acid)-Gly-Ornithine-Pro-His-Lys-(2,3-dehydroarginine)-Lys-(1,4-diaminobutane)] (H-K[ξDab(3-OH)][ξDab(3-OH)]G[Orn]PHK[ΔZArg]K-{NH(CH2)4NH2}; configuration not given here) registered an MIC against Pseudomonas aeruginosa of 6.25 µg/mL (≈ 4.94 µM). The CC50 at 72 h in “Cytotoxicity test (MTS)” (setting [1]) and in “Cytotoxicity test (MTS)” (setting [2]) was greater than 100 µg/mL in each case. Further, the viability at 72 h in “Cytotoxicity test (MTS)” (setting [1]) and in the series “Cytotoxicity test (MTS)” (setting [2]) was 100% throughout. In addition, the MBC with P. aeruginosa ATCC 27853 worked out at 12.5 µg/mL (≈ 9.88 µM); in the series with S. aureus ATCC 13709 it was 1.56 µg/mL (≈ 1.23 µM).
In the series on Bacteroides fragilis, `Cc1ncc([N+](=O)[O-])n1CCO` [metronidazole, reference compound] had an MIC of 0.39 µg/mL (≈ 2.28 µM).
For the compound polymyxin [reference compound], the MIC in the series with Pseudomonas aeruginosa (P. aeruginosa ATCC 27853), against Escherichia coli (E. coli ATCC 25922), in the series with Escherichia coli (E. coli CTX-M14 clinical isolate AEC7), in the series with Escherichia coli (E. coli CTX-M15 clinical isolate MEC23), against Escherichia coli (E. coli TEM clinical isolate MEC12) and against Klebsiella pneumoniae (K. pneumoniae ATCC 43816) was 0.39^c μg/mL throughout. The values for the MIC with Klebsiella pneumoniae (K. pneumoniae KPC clinical isolate 2475), in the series with Enterobacter cloacae and in the series on Klebsiella oxytoca were 0.78^c μg/mL, 0.78^c μg/mL and 0.39^c μg/mL, respectively.
